From patent US9629941B2, “Hydrogel coated scaffold” (CORTICALIS AS, priority 2012, dated 2017)
Where a SMILES comes first, the peptide text is derived from it.

Assays:
MC3T3-E1 cells [1] = experiment: Gene expression of cell adhesion and osteoblast markers by real-time RT-PCR, cells on alginate hydrogels; format: cell-based, mouse; settings: 50 μg/ml in 2% alginate hydrogel
Procedure: (§1) The mouse osteoblastic cell line MC3T3-E1 (DSMZ, Braunschweig, Germany) was maintained as previously described (Tiainen H et al., 2011). Before seeding, 24-well culture plates containing crosslinked alginate hydrogels were washed with 750 μl of culture media to remove the excess of CaCl2. After evaluation of the efficiency of cell adhesion on 2% alginate gel using different cell densities, for the final experiments, cells were seeded at a density of 100 000 cells/well. Media was refreshed twice a week. Culture media was collected 24 h after seeding to study cell viability. Cells were harvested at days 14 and 21 to analyze gene expression of adhesion and osteogenic-related markers using real-time RT-PCR. Cultures were routinely observed using light microscopy (Leica DMIRB, Leica Microsystems Wetzlar GmbH, Germany).
Total RNA was isolated using Tripure® (Roche Diagnostics, Mannheim, Germany), according to the manufacturer's protocol. Total RNA was quantified at 260 nm using a Nanodrop spectrophotometer (NanoDrop Technologies, Wilmington, Del., USA).
The same amount of RNA (350 ng) was reverse transcribed to cDNA using high capacity RNA-to-cDNA kit (Applied Biosystems, Foster City, Calif.), according to the protocol of the supplier. Aliquots of each cDNA were frozen (−20° C.) until the PCR reactions were carried out.
Real-time PCR was performed in the Lightcycler 480® (Roche Diagnostics, Mannheim, Germany) using SYBR green detection. Real-time PCR was done for two reference genes (18SrRNA and glyceraldehyde-3-phosphate dehydrogenase (GAPDH)) and ten target genes (integrin alpha 8 (Itga8), integrin beta1 (Itgb1), integrin beta 3 (Itgb3), fibronectin 1 (Fn11), bone morphogenetic protein 2 (Bmp2), collagen type I (Coll-I), bone sialoprotein (Bsp), alkaline phosphatase (Alp), osteocalcin (Oc) and osteopontin (Opn)).
The primer sequences are detailed in Table 2. Reaction conditions and relative quantification have been done as previously described (Tiainen H et al., 2011).

[2] = Peptide 2 release profile from TiO2 scaffolds coated with 2% alginate gel (UV-Vis 206 nm); format: physicochemical; settings: P2-alginate-coated TiO2 scaffolds, distilled water, 37° C.
Procedure: TiO2 scaffolds coated with 2% alginate containing peptide 2 (P2-alginate-coated scaffold) were placed into 48-well plates (Nunc GmBh & Co. Kg, Langenselbold, Germany) containing 1 ml distilled water (pH 7.4). In order to mimic cell culture conditions, the samples were agitated on an orbital shaker at 200 rpm (IKA® Schüttler MTS 2, Germany) for 6 h at 37° C. and in humidity conditions (using a distilled water container). Then, samples were maintained at 37° C. in a humidified atmosphere for up to 21 days. At prefixed time points (2d, 5d, 7d, 9d, 12d, 14d, 16d, 19d and 21d), distilled water was collected and fresh distilled water was added into each well. Sample absorbances were analyzed by UV-Vis spectrophotometer (PerkinElmer® Lambda 25 UV/Vis Systems, USA) at a wavelength of 206 nm to determine the amount of peptide released. In parallel, […] scaffolds coated with one layer of 2% alginate gel were used as control to subtract absorbance values obtained from degradation products from alginate.
Relative absorbance units were correlated with the amount of peptide released using a linear standard curve for each time point and the cumulative P2 released was then calculated. The experiment was performed in triplicate.

MC3T3-E1 cells [3] = experiment: Cell viability: LDH activity in culture media of cells on alginate hydrogels; format: cell-based, mouse; settings: 24 h; 50 μg/ml in 2% alginate hydrogel
Procedure: as §1
The LDH activity determined in the culture media after 24 h was taken as an indicator of membrane leakage or cell lysis. The activity of the cytosolic enzyme was estimated as previously described (Rupert M at al., 2011).

[4] = Peptide release profile from 2% alginate hydrogel (fluorescence spectroscopy); format: physicochemical
Procedure: To study the peptide release profile, P2 was labeled with FITC. The release of peptide contained into the 2% alginate hydrogel (50 μg/ml) was quantified by fluorescence spectroscopy. First, alginate hydrogels were washed with culture media to remove the excess of CaCl2. Then, 750 μl of cell culture media were added onto peptide loaded alginate hydrogel. The samples were incubated at 37° C. and 5% CO2 for 21 days and cell culture media was changed twice a week. At prefixed time points (24 h, 4 d, 7 d, 11 d, 14 d, 18 d and 21 d), supernatants were collected and analyzed by fluorescence spectroscopy (λ ex 490 nm and λ em 525 nm) to determine the amount of peptide released to the media. The amount of peptide released during the washing step was also measured. The experiment was performed three times, and each sample analyzed in triplicate.
Relative fluorescence units were correlated with the amount of peptide released using a linear standard curve for each time point.

[5] = tested on: primary human osteoblasts; experiment: Cytotoxicity assay (LDH activity in culture medium), SIM containing scaffolds; format: cell-based; settings: for LDH activity compared to alginate-coated scaffolds without SIM: 14-day period
Procedure: Cells from passages 7-9 were seeded on scaffolds at a density of 400.000 cells/ml. […] Scaffolds soaked with culture medium were placed in 48-well culture plates. […] The culture medium was replaced every other day. Collected medium was saved for use in cytotoxicity, alkaline phosphatase (ALP) activity and protein expression assays.

[6] = FITC-labeled P2, 50 μg/ml in 2% alginate hydrogel, culture media, 37° C.

CC(C)C[C@H](NC(=O)[C@@H]1CCCN1)C(=O)N[C@H](C(=O)N1CCC[C@H]1C(=O)N[C@@H](CO)C(=O)N[C@@H](CCC(N)=O)C(=O)N1CCC[C@H]1C(=O)N[C@@H](CC(C)C)C(=O)N[C@H](C(=O)N1CCC[C@H]1C(=O)N[C@@H](CO)C(=O)N[C@@H](CCC(N)=O)C(=O)N1CCC[C@H]1C(=O)N[C@@H](CC(C)C)C(=O)N[C@H](C(=O)N1CCC[C@H]1C(=O)N[C@@H](CO)C(=O)N[C@@H](CCC(N)=O)C(=O)N1CCC[C@H]1C(=O)N[C@@H](CCC(N)=O)C(=O)N1CCC[C@H]1C(=O)N1CCC[C@H]1C(=O)N[C@@H](CC(C)C)C(=O)N1CCC[C@H]1C(=O)N1CCC[C@H]1C(=O)O)C(C)C)C(C)C)C(C)C [P2] (H-PLVPSQPLVPSQPLVPSQPQPPLPP-OH)
Expression of Opn (MC3T3-E1 cells [1]; 14 days, vs control): decreased significantly
Fn1 mRNA levels (MC3T3-E1 cells [1]; 14 days, vs control): decreased significantly
Itgb1 mRNA levels (MC3T3-E1 cells [1]; 14 days, vs control): significantly decreased
Itgb3 mRNA levels (MC3T3-E1 cells [1]; 14 days, vs control): decreased significantly
Fn1 mRNA levels (MC3T3-E1 cells [1]; 21 days): no differences were observed
Itgb3 mRNA levels (MC3T3-E1 cells [1]; 21 days): no differences were observed
Bmp2 relative mRNA levels (MC3T3-E1 cells [1]; 21 days, vs EMD): decreased
ALP mRNA levels (MC3T3-E1 cells [1]; 21 days, vs control): significantly decreased
amount of peptide released after 5 days [2]: 9.4 % of the cumulative amount rel
burst release of the peptide during the first 2 days of incubation [2]: 42.8 % of the cumulative amount of P2 released after 21 days
cell viability compared to EMD (MC3T3-E1 cells [3]): significantly increased
total peptide theoretically contained in the alginate hydrogel not released after 21 days ([4]; FITC-labeled P2, 50 μg/ml in 2% alginate hydrogel, 37° C.): 5.6%
burst release of the peptide during the first 24 h of incubation [4, 6]: 54.67%
peptide slowly released up to 11 days [4, 6]: 25.8%
loaded peptide released during the washing step ([4]; washing of alginate hydrogels with culture media to remove excess CaCl2): 12.7%

CCC(C)(C)C(=O)O[C@H]1C[C@@H](C)C=C2C=C[C@H](C)[C@H](CC[C@@H]3C[C@@H](O)CC(=O)O3)[C@H]21 [SIM, simvastatin]
LDH activity compared to alginate-coated scaffolds without SIM ([5]; 10 nM SIM): Neither of the SIM concentrations caused a significant increase
LDH activity compared to alginate-coated scaffolds without SIM ([5]; 10 μM SIM): Neither of the SIM concentrations caused a significant increase
LDH activity, scaffolds with 10 μM SIM compared to scaffolds with 10 nM SIM ([5]; throughout the 14-day period): higher LDH activity

PHQPMQPQPPVHPMQPLPPQPPLPP (Synthetic biomineralizing peptide) [P6, synthetic proline-rich peptide]
Bmp2 relative mRNA levels (MC3T3-E1 cells [1]; 14 days, sentence ends 'compared to EMD'): increased significantly
ALP mRNA levels (MC3T3-E1 cells [1]; 14 days, vs control): significantly decreased
Expression of Opn (MC3T3-E1 cells [1]; 14 days, vs control): decreased significantly
Fn1 mRNA levels (MC3T3-E1 cells [1]; 14 days, vs control): decreased significantly
Itgb1 mRNA levels (MC3T3-E1 cells [1]; 14 days, vs control): significantly decreased
Itgb3 mRNA levels (MC3T3-E1 cells [1]; 14 days, vs control): decreased significantly
Fn1 mRNA levels (MC3T3-E1 cells [1]; 21 days): no differences were observed
Itgb3 mRNA levels (MC3T3-E1 cells [1]; 21 days): no differences were observed
Itgb1 mRNA levels (MC3T3-E1 cells [1]; 21 days, vs EMD): reduced significantly
ALP mRNA levels (MC3T3-E1 cells [1]; 21 days, vs control): significantly decreased
Oc mRNA levels (MC3T3-E1 cells [1]; 21 days, vs control): increased

PLVPSSPLVPCCPLVPCCPSPPLPP (Synthetic biomineralizing peptide) [P5, synthetic proline-rich peptide]
Oc mRNA levels (MC3T3-E1 cells [1]; 21 days, vs control): increased
Itga8 mRNA expression (MC3T3-E1 cells [1]; 21 days, vs control alginate hydrogel): increased
toxic effects compared to EMD and to untreated alginate gel (MC3T3-E1 cells [3]): significantly lower toxic effects
